Results from US12618096B2, “Rapid screen for antibiotic resistance and treatment regimen” (priority 2020, dated 2026).

Key:
Assay type in all cases: cell-based
A. baumannii NCTC 10303 = assay: Resistance profile of bacterial strain
[1] = tested on: A. baumannii ATCC 17978 ColR; assay: Resistance profile of bacterial strain
A. baumannii ATCC 17978 = assay: Resistance profile of bacterial strain
P. aeruginosa PAO1 = assay: Resistance profile of bacterial strain
A. baumannii NCTC 13302 = assay: Resistance profile of bacterial strain
[2] = tested on: Klebsiella pneumoniae (NCTC 13368); assay: Bacterial impedance flow cytometry of antimicrobial peptides; conditions: at the concentrations tested
Method: The method for determining the efficacy of different membrane penetrating peptide antimicrobials is essentially the same as for Example 1. Briefly, colonies are picked from plate carrying bacteria from a clinical sample (e.g. a urine sample from suspected UTI) into Tryptone soy broth (TSB) and incubated for 30 minutes prior to addition of the membrane penetrating peptide antimicrobial preparation. The incubation is typically carried out at 37° C. with shaking. […] The concentrations are selected to span the minimum inhibitory concentration of the two strains, as might be used clinically for an antimicrobial breakpoint determination. Optionally, the bacterial impedance flow cytometry method may be used to generate a measurement of the minimum inhibitory concentration or a fixed concentration is used on the basis of a resistant/susceptible breakpoint. The sample is incubated at 37° C. for 30 or 60 minutes in a static incubator at 37° C. The population at each timepoint is analysed using bacterial impedance flow cytometry and the data collected and analysed to measure both the viable cell number and any migration of the cell population out of a contour enclosing a percentage of a control or untreated population of the same species.
The bacterial impedance of the population was measured. […]

Row | Compound | Resistance profile (A. baumannii NCTC 10303) | Resistance profile [1] | Resistance profile (A. baumannii ATCC 17978) | Resistance profile (P. aeruginosa PAO1) | Resistance profile (A. baumannii NCTC 13302) | Susceptibility of NCTC 13368 relative to NCTC 12923 [2]
1 | Gentamicin | resistant | Resistant | Resistant | Resistant | Gentamicin- Resistant; Imipenem -Resistant; | –
2 | Colistin | Sensitive | Colistin-Resistant Ciprofloxacin-Resistant; | Sensitive | Sensitive | Sensitive | –
3 | O=C(O)c1cn(C2CC2)c2cc(N3CCNCC3)c(F)cc2c1=O [Ciprofloxacin] | Resistant | Colistin-Resistant Ciprofloxacin-Resistant; | Resistant | Resistant | Resistant | –
4 | CC[C@H](C)[C@H](NC(=O)CN)C(=O)NCC(=O)N[C@@H](C)C(=O)N[C@H](C(=O)N[C@@H](CC(C)C)C(=O)N[C@@H](CCCCN)C(=O)N[C@H](C(=O)N[C@@H](CC(C)C)C(=O)N[C@H](C(=O)N[C@H](C(=O)NCC(=O)N[C@@H](CC(C)C)C(=O)N1CCC[C@H]1C(=O)N[C@@H](C)C(=O)N[C@@H](CC(C)C)C(=O)N[C@H](C(=O)N[C@@H](CO)C(=O)N[C@@H](Cc1c[nH]c2ccccc12)C(=O)N[C@H](C(=O)N[C@@H](CCCCN)C(=O)N[C@@H](CCCNC(=N)N)C(=O)N[C@@H](CCCCN)C(=O)N[C@@H](CCCNC(=N)N)C(=O)N[C@@H](CCC(N)=O)C(=O)N[C@@H](CCC(N)=O)C(N)=O)[C@@H](C)CC)[C@@H](C)CC)[C@@H](C)O)[C@@H](C)O)C(C)C)C(C)C [melittin] | – | – | – | – | – | lower susceptibility
5 | Piperacillin/tazobactam | Piperacillin/tazobactam -sensitive | Piperacillin/tazobactam -Sensitive | Piperacillin/tazobactam -Sensitive | Piperacillin/tazobactam -Sensitive | Piperacillin/tazobactam -Resistant | –
